# Experimental data: US8193192B2, “Heterocyclic FXR binding compounds” (Phenex Pharmaceuticals AG, priority 2006, dated 2012)
# Columns and labels:
# [1] = biological target: T1, human farnesoid X receptor (FXR) alpha ligand binding domain (Homo sapiens, UniProt Q96RI1); experiment: FRET activity assay (ligand mediated cofactor peptide interaction, LANCE); type: biochemical; conditions: FXR-LBD/SRC-1 peptide interaction
# T1 construct: made in house; host or cells: E. coli BL21(DE3), vector pDEST15
# T1 sequence (Q96RI1 187-472 isoform Q96RI1-2): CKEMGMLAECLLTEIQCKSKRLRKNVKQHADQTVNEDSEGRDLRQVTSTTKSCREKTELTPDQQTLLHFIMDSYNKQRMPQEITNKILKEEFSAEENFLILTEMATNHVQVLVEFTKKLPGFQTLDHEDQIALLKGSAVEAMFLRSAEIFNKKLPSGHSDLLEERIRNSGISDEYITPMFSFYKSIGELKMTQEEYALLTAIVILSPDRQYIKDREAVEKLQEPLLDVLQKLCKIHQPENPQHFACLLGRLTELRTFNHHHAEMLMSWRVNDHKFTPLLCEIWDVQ
# Method: Determination of a ligand mediated cofactor peptide interaction to quantify ligand binding to the nuclear receptor Farnesoid X Receptor (FXR) was performed as follows:
# Preparation of human farnesoid X receptor (FXR) alpha ligand binding domain: The human FXRalpha ligand binding domain (LBD) was expressed in E. coli strain BL21(DE3) as an N-terminally glutathione-S-transferase (GST) tagged fusion protein. The DNA encoding the FXR ligand binding domain was cloned into vector pDEST15 (Invitrogen). Expression was under control of an IPTG inducible T7 promoter. The amino acid boundaries of the ligand binding domain were amino acids 187-472 of Database entry NM_005123 (RefSeq). Expression and purification of the FXR-LBD: An overnight preculture of a transformed E. coli strain was diluted 1:20 in LB-Ampicillin medium and grown at 30° C. to an optical density of OD600=0.4-0.6. Gene expression was then induced by addition of 0.5 mM IPTG. Cells were incubated an additional 6 h at 30° C., 180 rpm. Cells were collected by centrifugation (7000×g, 7 min, room temperature). Per liter of original cell culture, cells were resuspended in 10 ml lysis buffer (50 mM Glucose, 50 mM Tris pH 7.9, 1 mM EDTA and 4 mg/ml lysozyme) and left on ice for 30 min. Cells were then subjected to sonication and cell debris removed via centrifugation (22000×g, 30 min, 4° C.). Per 10 ml of supernatant 0.5 ml prewashed Glutathione 4B sepharose slurry (Qiagen) was added and the suspension kept slowly rotating for 1 h at 4° C. Glutathione 4B sepharose beads were pelleted by centrifugation (2000 g, 15 sec, 4° C.) and washed twice in wash buffer (25 mM Tris, 50 mM KCl, 4 mM MgCl2 and 1 M NaCl). The pellet was resuspended in 3 ml elution buffer per liter of original culture (elution buffer: 20 mM Tris, 60 mM KCl, 5 mM MgCl2 and 80 mM glutathione added immediately prior to use as powder). The suspension was left rotating for 15 min at 4° C., the beads pelleted and eluted again with half the volume of elution buffer than the first time. The eluates were pooled and dialysed overnight in 20 mM Hepes buffer (pH 7.5) containing 60 mM KCl, 5 mM MgCl2 as well as 1 mM dithiothreitol and 10% (v/v) glycerol. The protein was analysed by SDS-Page.
# The method measures the ability of putative ligands to modulate the interaction between the purified bacterial expressed FXR ligand binding domain (LBD) and a synthetic biotinylated peptide based on residues 676-700 of SRC-1 (LCD2, 676-700). The sequence of the peptide used was B-[…]-COOH where the N-terminus was biotinylated (B). The ligand binding domain (LBD) of FXR was expressed as fusion protein with GST in BL-21 cells using the vector pDEST15. Cells were lysed by sonication, and the fusion proteins purified over glutathione sepharose (Pharmacia) according to the manufacturers instructions. […] For ease of handling and reduction of background from compound fluorescence LANCE technology makes use of generic fluorophore labels and time resolved detection Assays were done in a final volume of 25 μl in a 384 well plate, in a Tris-based buffer (20 mM Tris-HCl pH 7.5; 60 mM KCl, 5 mM MgCl2; 35 ng/μl BSA), containing 20-60 ng/well recombinantly expressed FXR-LBD fused to GST, 200-600 nM N-terminally biotinylated peptide, representing SRC1 aminoacids 676-700, 200 ng/well Streptavidin-xIAPC conjugate (Prozyme) and 6-10 ng/well Eu W1024-antiGST (Perkin Elmer). […]
# [2] = Aqueous solubility assay, Protocol A, nephelometry method; type: physicochemical; conditions: PBS with 5% DMSO, aqueous with cosolvent or surfactant or cyclodextrin, kinetic from dmso stock, PBS pH 7.4, 5% DMSO, 23° C.
# Method: Aqueous solubility of compounds was determined by nephelometry or by shake-flask method as follows:
# Protocol A, Nephelometry Method:
# Solubility of compounds was measured in PBS (pH 7.4), 5% DMSO at 23° C. Nepheloskan Ascent (Thermo Electron Corporation) nephelometer was used for measurement of light scattering. Tested compounds were dissolved in DMSO to 10 mM. Prior to measurement the compounds were further diluted with PBS in the wells to final compound concentrations of 100, 70, 50, 35, 25, 17, 12 and <10 μg/ml.
# The plates were incubated at room temperature for 24 hours to reach equilibrium and the scattered light was measured. Assay validation: Aqueous solubility of acetylsalicylic acid was determined to validate the assay. […] Aqueous solubilities of examples and reference compounds are listed below in Table 2.
SMILES,EC50 [1],solubility at 24 h [2]
"Cc1cc(OCc2c(-c3c(Cl)cccc3Cl)noc2C(C)C)cnc1Oc1ccc(C(=O)O)cc1 [Example 3, 4-(5-((3-(2,6-Dichlorophenyl)-5-isopropylisoxazol-4-yl)methoxy)-3-methylpyridin-2-yloxy)benzoic acid]",≤ 1000 nM,–
"CC(C)c1onc(-c2c(Cl)cccc2Cl)c1COc1ccc(Oc2ccc(C(=O)O)cc2)cc1 [Compound A, reference compound]",–,24 µM
